{"source": "patent US11084783B2", "about": "“O-alkyl-benzylideneguanidine derivatives and therapeutic use for the treatment of disorders associated with an accumulation of misfolded proteins” (INFLECTIS BIOSCIENCE, priority 2014, dated 2021)", "format_in_all_cases": "cell-based", "key": {"[1]": {"tested_on": "rotenone injured primary mesencephalic rat neurons", "test": "In vitro Parkinson's disease model: rotenone injured primary mesencephalic rat neurons", "settings": "rotenone 10 nM, 24 hours; total number of TH positive neurons", "procedure": "Rat dopaminergic neurons were cultured as described by Schinelli et al., (1988 J. Neurochem 50 pp1900-07) and Visanji et al., (2008 FASEB J. 22(7) pp2488-97). Briefly, the midbrains obtained from 15-day old rat embryos (Janvier Labs, France) were dissected under a microscope. The embryonic midbrains were removed and placed in ice-cold medium of Leibovitz (L15, Pan Biotech, Batch: 9310614) containing 2% of Penicillin-Streptomycin (PS, Pan Biotech, Batch: 1451013) and 1% of bovine serum albumin (BSA, Pan Biotech, Batch: h140603). The ventral portion of the mesencephalic flexure, a region of the developing brain rich in dopaminergic neurons, was used for the cell preparations.\nThe midbrains were dissociated by trypsinisation for 20 min at 37° C. (Trypsin 0.05% EDTA 0.02%, PanBiotech, Batch: 5890314). The reaction was stopped by the addition of Dulbecco's modified Eagle's medium (DMEM, PanBiotech, Batch: 1300714) containing DNAase I grade II (0.1 mg/ml, PanBiotech, Batch: H140508) and 10% of foetal calf serum (FCS, Gibco, Batch: 41Q7218K). Cells were then mechanically dissociated by 3 passages through a 10 ml pipette. Cells were then centrifuged at 180×g for 10 min at +4° C. on a layer of BSA (3.5%) in L15 medium. The supernatant was discarded and the cell pellets were re-suspended in a defined culture medium consisting of Neurobasal (Invitrogen, Batch: 1636133) supplemented with B27 (2%, Invitrogen, Batch: 1660670), L-glutamine (2 mM, PanBiotech, Batch: 8150713) and 2% of PS solution and 10 ng/ml of Brain-derived neurotrophic factor (BDNF, PanBiotech, Batch: H140108) and 1 ng/ml of Glial-Derived Neurotrophic Factor (GDNF, Pan Biotech, Batch: H130917). Viable cells were counted in a Neubauer cytometer using the trypan blue exclusion test. The cells were seeded at a density of 40 000 cells/well in 96 well-plates pre-coated with poly-L-lysine (Corning Biocoat, Batch: 6614022) and maintained in a humidified incubator at 37° C. in 5% CO2/95% air atmosphere. Half of the medium was changed every 2 days with fresh medium.\nOn day 6 of culture, the medium was removed and fresh medium was added, without or with rotenone (Sigma, Batch: 021M2227V) at 10 nM diluted in control medium, 3 wells per condition were assessed. […]\nThe immunolabeled cultures were automatically examined with ImageXpress (Molecular device USA). For each condition, 20 automatically fields per well (representing ˜80% of the total surface of the well) from 3 wells were analyzed. The total number of TH neurons was automatically analyzed using Custom module editor (Molecular Devices, USA). […] All values were expressed as mean +/−SEM (s.e. mean) of the 1 culture (n=3 wells per condition per culture)."}, "[2]": {"tested_on": "T181P mutated DM20 protein expressed in Human 293T cell", "test": "In vitro model of leukodystrophy (PMD): overexpression of mutated DM20, protein accumulation by western-blot", "settings": "5 microM, western-blot 48h", "procedure": "Human open reading frame (ORF) sequences for PLP1, DM20 and Insulin were obtained from Life Technologies (Invitrogen) (IOH41689, IOH5252 and IOH7334 respectively). Construct cloning into the expression plasmid pDEST26 (Invitrogen) was performed by Gateway® LR Clonase™ II Enzyme Mix (Invitrogen). ORF mutations were carried out using the QuikChange Lightning Site-Directed Mutagenesis Kit (Stratagene) (T181P mutation for PLP1 and DM20 ORFs, Akita (C96Y) for Insulin ORF).\nOne day before transfection, 293T cells were plated at 300,000 cells/mL. 293T cells were transfected with PLP1 and DM20 mutant constructs using Lipofectamine 2000 according to manufacturer's procedure. After transfection, cells were treated with molecules or left untreated.\nAs a control, cells were transfected with native forms of the proteins. 48h later, cellular lysates were harvested. Protein accumulation was assessed by western-blot."}, "[3]": {"tested_on": "Min6 insulinoma cell", "test": "Min6 cell line cytoprotection from ER stress (tunicamycin)", "settings": "6 hour exposure to tunicamycin 2.5 μg/mL, different concentrations, viability 72h", "procedure": "Cells were plated in 96 well plates at a density of 0.5.10^6 cells/mL for Min6 cell line, 0,4.10^6 cells/mL for INS1 cell line the day before the treatment. ER stress was elicited by addition of 2.5 μg/mL tunicamycin (Sigma Aldrich) together with phosphatases inhibitors. Media were changed 6h later with fresh media and the cytoprotection was maintained by the addition of phosphatases inhibitors. Cell viability was assessed by measuring the reduction of WST-8 into formazan using Cell Counting Kit-8 (Sigma) according to the supplier's recommendation, 72h after tunicamycin treatment."}}, "data": [{"smiles": "CCONC(=N)N/N=C/c1c(Cl)cccc1Cl", "note": "[Compound 11, 2-(2,6-dichlorobenzylidene)-N-ethoxyhydrazinecarboximidamide]", "values": [{"measurement": "protection of rotenone injured primary mesencephalic rat neurons (FIG. 3)", "setting": "[1]", "value": "dose dependent protection"}]}, {"smiles": "CCCONC(=N)N/N=C/c1ccccc1Cl", "note": "[Compound 12, 2-(2-chlorobenzylidene)-N-propoxyhydrazinecarboximidamide]", "values": [{"measurement": "prevention of accumulation of T181P mutated DM20 protein (FIG. 5)", "setting": "[2]", "value": "able to prevent the accumulation"}, {"measurement": "prevention of Min6 insulinoma cell death (FIG. 7)", "setting": "[3]", "value": "prevent Min6 insulinoma cell death"}, {"measurement": "protection of rotenone injured primary mesencephalic rat neurons (FIG. 3)", "setting": "[1]", "value": "dose dependent protection"}]}, {"smiles": "CCONC(=N)N/N=C/c1c(F)cccc1Cl", "note": "[Compound 17, 2-(2-chloro-6-fluorobenzylidene)-N-ethoxyhydrazinecarboximidamide]", "values": [{"measurement": "prevention of accumulation of T181P mutated DM20 protein (FIG. 5)", "setting": "[2]", "value": "able to prevent the accumulation"}, {"measurement": "prevention of Min6 insulinoma cell death (FIG. 7)", "setting": "[3]", "value": "prevent Min6 insulinoma cell death"}, {"measurement": "protection of rotenone injured primary mesencephalic rat neurons (FIG. 3)", "setting": "[1]", "value": "dose dependent protection"}]}]}
